Assay results taken from patent US20250282797A1, “CRYSTALLINE FORM OF FGFR4 INHIBITOR AND USE THEREOF” (CSPC ZHONGQI PHARMACEUTICAL TECHNOLOGY (SHIJIAZHUANG) CO., …, priority 2022, published 2025).
≈ marks a conversion by molar mass, not a printed value. Read-outs that look alike come from different tables or passages of the source.

How the values were obtained:
[1] = Solubility test; assay type: physicochemical; conditions: 200 rpm; for solubility at 24 h: 37 °C, thermodynamic from solid; for FeSSIF Solubility: FeSSIF (pH about 5.00)
Description: Test Example 2: Solubility Test
The crystalline form I sample (5 mg) obtained in Example 1 and the crystalline form II sample (5 mg) obtained in Example 22 were added to a sample bottle, and 1 mL of SGF (simulated gastric fluid), FaSSIF (fasted state simulated intestinal fluid), FeSSIF (fed state simulated intestinal fluid), and water were separately added. The resulting suspensions were shaken at 37° C. at a rotation speed of 200 rpm for 24 h and filtered. The resulting filtrates were subjected to the concentration test, and the resulting solids were subjected to XRPD characterization.

[2] = Grinding stability study; assay type: physicochemical
[3] = Dynamic vapor sorption/desorption (DVS) analysis; assay type: physicochemical
Description: 2. Dynamic Vapor Sorption/Desorption (DVS) Analysis
Instrument: DVS Intrinsic plus (SMS, UK).
Method: a sample is placed in a tared sample basket, the weight of the sample is automatically measured, and the sample is dried at 40° C./0% RH until dm/dt is less than 0.002% and then cooled to 25° C.

[4] = Solid stability study; assay type: physicochemical; conditions: 7 days
Description: Test Example 3: Solid Stability Study
The crystalline form I (5 mg) obtained in Example 1 and the crystalline form II (5 mg) obtained in Example 22 were weighed into sample bottles; the samples were subjected to solid-state stability studies after being placed under the conditions of 60° C. (closed) and 40° C./75% RH (open); and sampling was performed on day 7 for XRPD characterization.

[5] = Pharmacokinetic study in rats; assay type: in vivo, SD rats; conditions: rat
Description: Test Example 6: Pharmacokinetic Study of Compound of Formula B in Rats
Assay drug: the compound of formula B obtained in Preparation Example 1.
Instrument: LC-MS/MS-13 (TQ5500, Triple quad), with the operation software of Xcalibur2.0.7 (Thermo Fisher Scientific, USA); LC-10ADvp liquid chromatography system (Shimadzu, Japan); Shimadzu LC-20AD liquid chromatography pump; Shimadzu CBM-20A system controller; Shimadzu CTO-20A column oven; and SIL-20AC autosampler (Shimadzu, Japan). Chromatographic column: Agilent Zorbax SB-CN 3.5 u 100×2.1 mm; column temperature: 40° C.; mobile phase A: 0.1% aqueous formic acid solution; mobile phase B: a 0.1% solution of formic acid in acetonitrile; flow rate: 0.60 mL/min. The gradient elution was performed as follows: from 0 to 0.5 min, the mobile phase B was increased from 1% to 90%; from 0.5 to 1.2 min, 90% of the mobile phase B was maintained; starting from 1.21 min, the mobile phase B was changed back to 1%; and elution was stopped at 1.60 min.
Animals: 6 male SD rats were supplied by Shanghai Sippe-Bk Lab Animal Co., Ltd. The body weight range was 180-220 g. After purchase, the rats were bred in the laboratory of the experimental animal center for 2 days for later use. The rats were fasted 10-14 h before administration and 4 h after administration, and given ad libitum access to water during the assay. The rats were randomly divided into two groups, with 3 rats in each group. One group was intravenously injected, and the other group was intragastrically administered.
Preparation of intragastric administration solution: the compound of formula B (4.85 mg) was precisely weighed out, and a mixed aqueous solution (9.70 mL) containing 0.5% methylcellulose and 0.4% Tween-80 was added, followed by sonication at room temperature to prepare a 0.5 mg/mL suspension. Preparation of intravenous injection solution: the compound of formula B (2.79 mg) was precisely weighed out, and DMSO (21 μL), PEG200 (2.79 mL), and normal saline (4.164 mL) were added to prepare a 0.4 mg/mL solution.
Blood was collected in the intragastric administration group about 0.25 h before administration and 0.25 h, 0.5 h, 1 h, 1.5 h, 2 h, 4 h, 6 h, 8 h, 12 h, and 24 h after administration. Blood was collected in the intravenous administration group about 0.25 h before administration and 0.083 h, 0.25 h, 0.5 h, 0.75 h, 1 h, 2 h, 4 h, 8 h, 12 h, and 24 h after administration. The blood was collected from the jugular vein or other venipuncture at 0.25 mL/time point and anticoagulated with EDTA-K2 or EDTA-K3. The collected blood was placed on the ice. After the blood samples were collected, plasma was separated by centrifugation (centrifugation conditions: 6800 g/min, 6 min, 2-8° C.). The collected plasma samples were stored in a refrigerator at −80° C. for testing prior to analysis.
The compound of the formula B was accurately weighed out and formulated into different concentrations, and quantitative analysis was performed on a mass spectrometer to establish a standard curve. The concentration of the compound of formula B in the plasma described above was then measured to obtain the concentrations of the compound of formula B at different time points. All the measured data were collected and processed by relevant software, and pharmacokinetic parameters (mainly including kinetic parameters Tmax, T1/2, Cmax, AUC0-t, etc.) were calculated by adopting a statistical moment method. […]

[6] = Competitive suspension experiments; assay type: physicochemical; conditions: for XRPD result (room temperature): 25° C.
Description: Test Example 1: Competitive Suspension Experiments
Equal amounts (6 mg) of the crystalline form I sample of the compound of formula B obtained in Example 1, the crystalline form II sample of the compound of formula B obtained in Example 22, and the crystalline form III sample of the compound of formula B obtained in Example 33 were mixed. The resulting mixture was separately stirred at room temperature (25° C.) and at a high temperature (50° C.) for 24 h, 2 days, and 7 days in the following solvents, and the remaining solids were subjected to the XRPD test.

[7] = male, SD, plasma, iv, intravenously injected, 2.0 mg/kg
[8] = male, SD, plasma, po, intragastrically administered, 5 mg/kg
[9] = Dichloromethane/acetonitrile (V:V = 1:2), 0.5 mL, 24 h
[10] = Dichloromethane/acetonitrile (V:V = 1:2), 0.5 mL, 7 days
[11] = Dichloromethane/ethanol (V:V = 1:4), 0.5 mL, 24 h
[12] = Dichloromethane/ethanol (V:V = 1:4), 0.5 mL, 7 days
[13] = N,N-Dimethylformamide, 0.5 mL, 24 h
[14] = N,N-Dimethylformamide, 0.5 mL, 7 days
[15] = Water/acetone (V:V = 1:1), 1 mL, 2 days
[16] = Water/acetone (V:V = 2:8), 1 mL, 2 days
[17] = Water/acetone (V:V = 5:95), 1 mL, 2 days

Compound: N#Cc1cnc(NC(=O)N2CCCc3cc(CN4CCN5CCC[C@H]5C4=O)c(C=O)nc32)cc1NC1CC1 [Crystalline form I]
- solubility at 24 h ([1]; FaSSIF (fasted state simulated intestinal fluid), pH 6.5, fassif, FaSSIF (pH about 6.50), read-out: FaSSIF Solubility): 26 µg/mL (≈ 50.5 µM)
- FeSSIF Solubility ([1]; 37° C., 24 h): 14 µg/mL
- solubility at 24 h ([1]; SGF (simulated gastric fluid), pH 1.2, simulated gastric fluid, SGF (pH about 1.20), read-out: SGF Solubility): > 5000 µg/mL
- Water Solubility ([1]; 37° C., 24 h): 3.1 µg/mL
- Grinding stability result (crystalline form, XRPD) ([2]; Solid grinding, 2 min): unchanged
- Grinding stability result (crystalline form, XRPD) ([2]; Solid grinding, 5 min): unchanged, but the crystallinity
- Grinding stability result (crystallinity, XRPD) ([2]; Solid grinding, 5 min): became worse
- Grinding stability result (crystalline form, XRPD) ([2]; Solvent grinding, Acetone): unchanged
- Grinding stability result (crystalline form, XRPD) ([2]; Solvent grinding, Acetonitrile): unchanged
- Grinding stability result (crystalline form, XRPD) ([2]; Solvent grinding, Dichloromethane): unchanged
- Grinding stability result (crystalline form, XRPD) ([2]; Solvent grinding, Ethanol): unchanged
- Grinding stability result (crystalline form, XRPD) ([2]; Solvent grinding, Methanol): unchanged
- hygroscopic weight gain ([3]; DVS, 0-90% RH, 25° C.): about 0.24%
- hygroscopicity ([3]; DVS, 0-90% RH, 25° C.): almost non-hygroscopic
- crystalline form of the sample after the DVS test ([3]; XRPD after DVS): not changed
- XRPD result at 40° C./75% RH (open) [4]: Unchanged
- XRPD result at 60° C. (closed) [4]: Unchanged

Compound: N#Cc1cnc(NC(=O)N2CCCc3cc(CN4CCN5CCC[C@@H]5C4=O)c(C=O)nc32)cc1NC1CC1 [compound of formula C]
- AUC(0-t) [5, 7]: 2550 ng·h/mL
- clearance [5, 7]: 13.4 mL/min/kg
- half-life [5, 7]: 1.23 h
- bioavailability ([5]; male, SD, plasma, oral, intragastric 5 mg/kg vs intravenous 2.0 mg/kg, read-out: absolute bioavailability): 35.3%
- AUC(0-t) [5, 8]: 2250 ng·h/mL
- Cmax [5, 8]: 597 ng/mL
- half-life [5, 8]: 1.24 h
- Tmax ([5]; male, SD, plasma, po, intragastrically administered, 5 mg/kg, read-out: time at which the plasma concentration reached the peak value (Tmax)): 2.5 h
- volume distribution ([5]; intravenously injected, 2.0 mg/kg): 0.973 L/kg

Compound: N#Cc1cnc(NC(=O)N2CCCc3cc(CN4CCN5CCC[C@H]5C4=O)c(C=O)nc32)cc1NC1CC1
- XRPD result (room temperature) [6, 9]: form I + II
- XRPD result (50° C.) [6, 9]: form I + II
- XRPD result (room temperature) [6, 10]: form I
- XRPD result (50° C.) [6, 10]: form I
- XRPD result (room temperature) [6, 11]: form I + II
- XRPD result (50° C.) [6, 11]: form I + II
- XRPD result (room temperature) [6, 12]: form I
- XRPD result (50° C.) [6, 12]: form I
- XRPD result (room temperature) [6, 13]: form I + II
- XRPD result (50° C.) [6, 13]: form I + II
- XRPD result (room temperature) [6, 14]: form I
- XRPD result (50° C.) [6, 14]: form I
- XRPD result (room temperature) ([6]; Water, 0.5 mL, 7 days): form I + II
- XRPD result (50° C.) ([6]; Water, 0.5 mL, 7 days): form I + II
- XRPD result (room temperature) [6, 15]: form I + II
- XRPD result (50° C.) [6, 15]: form I
- XRPD result (room temperature) [6, 16]: form I + II
- XRPD result (50° C.) [6, 16]: form I
- XRPD result (room temperature) [6, 17]: form I + II
- XRPD result (50° C.) [6, 17]: form I

Compound: N#Cc1cnc(NC(=O)N2CCCc3cc(CN4CCN5CCC[C@H]5C4=O)c(C=O)nc32)cc1NC1CC1 [Crystalline form II]
- FaSSIF Solubility ([1]; FaSSIF (pH about 6.50), 37° C., 24 h): 19 µg/mL
- FeSSIF Solubility ([1]; 37° C., 24 h): 5.5 µg/mL
- SGF Solubility ([1]; SGF (pH about 1.20), 37° C., 24 h): >5000 µg/mL
- Water Solubility ([1]; 37° C., 24 h): 1.5 µg/mL
- XRPD result at 40° C./75% RH (open) [4]: Unchanged
- XRPD result at 60° C. (closed) [4]: Unchanged
